Measurements from ChEMBL document CHEMBL1781915, “Potential virtual lead identification in the discovery of renin inhibitors: application of ligand and structure-based pharmacophore modeling approaches” (Eur J Med Chem, 2011).
pIC50: −log10 of the molar value.

Target: T1, Renin (Homo sapiens, UniProt P00797)
T1 sequence (P00797 whole entry): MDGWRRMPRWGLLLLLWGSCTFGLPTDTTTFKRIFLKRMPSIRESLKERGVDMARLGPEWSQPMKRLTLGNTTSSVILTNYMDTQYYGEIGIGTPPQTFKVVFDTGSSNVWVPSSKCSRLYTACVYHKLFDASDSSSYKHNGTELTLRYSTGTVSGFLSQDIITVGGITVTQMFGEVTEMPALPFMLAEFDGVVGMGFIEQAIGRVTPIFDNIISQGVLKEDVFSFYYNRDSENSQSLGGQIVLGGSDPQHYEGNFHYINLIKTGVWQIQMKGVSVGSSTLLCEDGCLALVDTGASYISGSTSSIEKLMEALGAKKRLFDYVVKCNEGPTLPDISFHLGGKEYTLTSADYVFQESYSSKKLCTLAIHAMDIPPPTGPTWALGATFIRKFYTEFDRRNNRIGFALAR

Row | Structure (SMILES) | pIC50
1 | Cc1cc(Cl)c(OCCOc2ccc(C3=C(C(=O)N(Cc4cccc(C)c4C)C4CC4)C4CNCC(C3)N4)cc2)c(Cl)c1 (stereo unspecified) | 9.80
2 | CC(C)(C)S(=O)(=O)CC(Cc1ccccc1)C(=O)NC(Cc1cnc[nH]1)C(=O)NC(CC1CCCCC1)C(O)C(O)C1CC1 (stereo unspecified) | 9.00
3 | COc1ccccc1COCCCOc1ccc(N2C(=O)CNCC2COC2=CC3C(=CC=CN3CCCO)C=C2)cc1 (stereo unspecified) | 7.43

Other lines, results leading:

Row | pIC50 | Structure (SMILES)
4 | 9.15 | CCCCNC(=O)C(CC(=O)C(CC1CCCCC1)NC(=O)C(Cc1cnc[nH]1)NC(=O)C(Cc1ccccc1)CS(=O)(=O)C(C)(C)C)C(C)C (stereo unspecified)
5 | 9.10 | CCCCNC(=O)C(C)CC(O)C(N)CC(C)(C)CC(=O)N1CC(C(=O)OC)Cc2ccccc21 (stereo unspecified)
6 | 9.05 | CCCCNC(=O)C(C)CC(O)C(N)CC(CNC(=O)c1cccc(OCCCOC)c1)C(C)C (stereo unspecified)
